The results in this text go back to patent US9061041B2, “2′-substituted nucleoside derivatives and methods of use thereof for the treatment of viral diseases” (Merck Sharp & Dohme Corp., priority 2011, dated 2015).

pEC50, pIC50: −log10 of the molar value.

The subject of data set [1] is human cryopreserved hepatocyte. Type of data set: in vitro ADME. The note with it: human hepatocytes, NTP level over Ki.
Procedure: A 2 mM stock solution of the prodrug test compound is prepared in 5% DMSO/95% MeOH to provide a final sample concentration of 10 μM. A 5 μL aliquot is removed from this stock solution and added to 1 mL of either a rat or human cryopreserved hepatocyte sample to provide a control sample at a concentration of 1 million cells/mL. This sample is assayed in triplicate and used as a test sample.
Human and rat hepatocytes are removed from liquid nitrogen storage and thawed by submerging the hepatocyte tube into a pre-heated 37° C. waterbath and gently shaking the tube back & forth until thawed. The thawed hepatocytes are then gently poured into a container of Hepatocyte Basal Medium (50 mL, pre-warmed to 37° C.) and washed. […]
A 1 mL aliquot is removed from the 1 million cells/mL final hepatocyte suspension, analyzed in triplicate and placed into 20 mL scintillation vial without a cap. […]
The incubated hepatocyte suspension samples are transferred to a micro-centrifuge tube using a transfer pipette and centrifuged at 500 rpm for 4 minutes at room temperature. […] The resulting extract solution is then stored in a refrigerator at 4° C. until ready for use, at which point the sample is first subjected to vortexing/sonication to ensure that all hepatocyte cells have burst. […]
The target of data set [2] is HCV NS5B RNA-dependent RNA polymerase (1b-BKΔ55) (Hepatitis C virus genotype 1b (isolate BK) (HCV), UniProt P26663). Kind of data set: biochemical.
The test system of data set [3] is replicon cells (1b-Con1). Kind of data set: Cytotoxicity MTS assay in replicon cells. To be noted: CC50, MTS assay, three days post dosing.
Data set [4] deals with replicon cells (1b-Con1). Kind of data set: Replicon activity assay (1b-Con1). Type of data set: cell-based, HCV. To be noted: Hepatitis C virus, 72 h, three days post-dosing. (In antiviral work, replicon cells carry a viral genome segment that copies itself.)

Sequence of HCV NS5B RNA-dependent RNA polymerase (1b-BKΔ55) (P26663 2420-2955): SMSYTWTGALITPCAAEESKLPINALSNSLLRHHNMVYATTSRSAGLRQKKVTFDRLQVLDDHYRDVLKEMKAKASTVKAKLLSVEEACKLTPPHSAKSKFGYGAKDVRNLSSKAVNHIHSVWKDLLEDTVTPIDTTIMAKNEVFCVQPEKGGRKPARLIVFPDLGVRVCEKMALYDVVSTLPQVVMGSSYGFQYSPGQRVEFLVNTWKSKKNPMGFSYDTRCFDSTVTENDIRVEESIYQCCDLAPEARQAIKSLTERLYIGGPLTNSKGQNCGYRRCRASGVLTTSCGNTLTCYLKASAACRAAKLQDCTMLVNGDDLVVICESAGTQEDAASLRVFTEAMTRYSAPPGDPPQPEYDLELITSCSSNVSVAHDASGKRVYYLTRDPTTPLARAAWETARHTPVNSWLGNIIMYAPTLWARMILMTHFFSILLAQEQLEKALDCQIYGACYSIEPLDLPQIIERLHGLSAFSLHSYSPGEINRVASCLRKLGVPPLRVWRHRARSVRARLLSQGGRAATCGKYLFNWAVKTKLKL

In the case of `CCOC(=O)[C@H](C)NP(=O)(OC[C@H]1O[C@@H](n2cnc3c(OC)nc(N)nc32)[C@](C)(N)[C@@H]1O)Oc1ccccc1` (stereo partly shown) [drawing 225], the “Human Hepatocyte NTP (4 hour at 10 μM)/Ki” value in data set [1] is listed as 32 x.

For `C[C@@]1(N)[C@H](O)[C@@H](COP(=O)(O)OP(=O)(O)OP(=O)(O)O)O[C@H]1n1ccc(N)nc1=O` [Compound 81], in data set [2], the pIC50 is 5.64.

`C[C@@]1(N)[C@H](O)[C@@H](COP(=O)(O)OP(=O)(O)OP(=O)(O)O)O[C@H]1n1cnc2c(=O)[nH]c(N)nc21` [Compound 80]: the pIC50 in data set [2] was 6.22.

`C[C@@]1(N)[C@H](O)[C@@H](COP(=O)(O)OP(=O)(O)OP(=O)(O)O)O[C@H]1n1ccc(=O)[nH]c1=O` [Compound 82] showed a pIC50 in data set [2] of 4.89.

Molecule `C#C[C@]1(C)[C@H](O)[C@@H](COP(=O)(N[C@@H](C)C(=O)OC(C)C)Oc2ccccc2)O[C@H]1n1ccc(=O)[nH]c1=O` (stereo partly shown) returned a Cytotoxicity in the data set with replicon cells (1b-Con1) [3] of over 100 µM. Also, the pEC50 with replicon cells (1b-Con1) [4] was 5.64.

In the data set with replicon cells (1b-Con1) [3], `CC(C)OC(=O)[C@H](C)NP(=O)(OC[C@H]1O[C@@H](n2ccc(=O)[nH]c2=O)[C@](C)(N)[C@@H]1O)Oc1ccccc1` (stereo partly shown) [drawing 239] registered a Cytotoxicity of over 100 µM. In the data set on replicon cells (1b-Con1) [4], this molecule gave a pEC50 of 5.51.

`COc1nc(N)nc2c1ncn2[C@@H]1O[C@H](COP(=O)(N[C@@H](C)C(=O)OCC(C)(C)C)Oc2ccccc2)C(O)[C@@]1(C)N` (stereo partly shown) showed a Cytotoxicity in the data set on replicon cells (1b-Con1) [3] of over 100 µM. Moreover, the pEC50 in the data set on replicon cells (1b-Con1) [4] was 6.05.

For the molecule `C[C@H](NP(=O)(OC[C@H]1O[C@@H](n2ccc(=O)[nH]c2=O)[C@](C)(N)C1O)Oc1ccccc1)C(=O)OCC(C)(C)C` (stereo partly shown), in the data set on replicon cells (1b-Con1) [3], the Cytotoxicity is over 100 µM. For the same molecule, the negative-log EC50 (pEC50) in the data set with replicon cells (1b-Con1) [4] was 6.15.

The molecule `COc1nc(N)nc2c1ncn2[C@@H]1O[C@@H]2COP(=O)(OC(C)C)O[C@H]2[C@@]1(C)N` (stereo partly shown) [drawing 240] came in with a Cytotoxicity in the data set on replicon cells (1b-Con1) [3] of over 100 µM. In the data set on replicon cells (1b-Con1) [4], this molecule showed a pEC50 of 4.36.

The molecule `C[C@@]1(N)[C@@H]2OP(=O)(OC3CCC3)OC[C@H]2O[C@H]1n1ccc(N)nc1=O` (stereo partly shown) [drawing 247] returned a Cytotoxicity with replicon cells (1b-Con1) [3] of over 50 µM. The molecule also had a pEC50 with replicon cells (1b-Con1) [4] of 5.55.

Molecule `CC(C)COC(=O)[C@H](C)NP(=O)(OC[C@H]1O[C@@H](n2ccc(N)nc2=O)[C@](C)(N)[C@@H]1O)Oc1ccccc1` (stereo partly shown) had a Cytotoxicity in the data set on replicon cells (1b-Con1) [3] of 50 µM. In the data set with replicon cells (1b-Con1) [4], this molecule showed a pEC50 of 5.18.

As for `CC(C)OC(=O)[C@H](C)NP(=O)(OC[C@H]1O[C@@H](n2ccc(=O)[nH]c2=O)[C@](C)(N)[C@@H]1O)Oc1ccccc1` (stereo partly shown) [drawing 226], the “Human Hepatocyte NTP (4 hour at 10 μM)/Ki” value in data set [1] is 30 x.

Turning to `C[C@H](NP(=O)(OC[C@H]1O[C@@H](n2ccc(N)nc2=O)[C@](C)(N)C1O)Oc1ccccc1)C(=O)OCC(C)(C)C` (stereo partly shown), the Cytotoxicity in the data set with replicon cells (1b-Con1) [3] is over 100 µM. In addition, the pEC50 with replicon cells (1b-Con1) [4] is 5.36.

Molecule `CCOc1nc(N)nc2c1ncn2[C@@H]1O[C@H](COP(=O)(N[C@@H](C)C(=O)OC)Oc2ccccc2)[C@@H](O)[C@@]1(C)SC` (stereo partly shown) [drawing 242] gave a Cytotoxicity in the data set on replicon cells (1b-Con1) [3] of over 100 µM. Moreover, in the data set on replicon cells (1b-Con1) [4], the pEC50 was 4.42.

Regarding `CCOC(=O)[C@H](C)NP(=O)(OC[C@H]1O[C@@H](n2cnc3c(OC)nc(N)nc32)[C@](C)(N)[C@@H]1O)Oc1ccccc1` (stereo partly shown) [drawing 248], in the data set with replicon cells (1b-Con1) [3], the Cytotoxicity was over 100 µM. The molecule also gave a pEC50 with replicon cells (1b-Con1) [4] of 7.00.

As a reminder, the pIC50 is the IC50 on a negative log10 scale, so that one unit is a factor of ten. As usually defined, the pEC50 is the negative decadic logarithm of the EC50, by convention in mol/L. Low readings indicate a high EC50, high ones a low EC50.
